Laboratory results published in patent US8957078B2, “Compounds useful as inhibitors of ATR kinase” (Vertex Pharmaceuticals Incorporated, priority 2013, dated 2015).

Experiments:
[1] = biological target: T1, ATR kinase (full-length ATR) (Homo sapiens, UniProt Q13535); assay: ATR Inhibition Assay (radioactive-phosphate incorporation); format: biochemical; details: Ki(app); 5 nM full-length ATR, 10 μM ATP, 800 μM target peptide, 25° C.
T1 construct: in the presence of 5 nM full-length ATR
Description: Compounds were screened for their ability to inhibit ATR kinase using a radioactive-phosphate incorporation assay. Assays were carried out in a mixture of 50 mM Tris/HCl (pH 7.5), 10 mM MgCl2 and 1 mM DTT. Final substrate concentrations were 10 μM [γ-33P]ATP (3 mCi 33P ATP/mmol ATP, Perkin Elmer) and 800 μM target peptide (ASELPASQPQPFSAKKK (SEQ. ID NO: 1)).
Assays were carried out at 25° C. in the presence of 5 nM full-length ATR. An assay stock buffer solution was prepared containing all of the reagents listed above, with the exception of ATP and the test compound of interest. 13.5 μL of the stock solution was placed in a 96 well plate followed by addition of 2 μL of DMSO stock containing serial dilutions of the test compound (typically starting from a final concentration of 15 μM with 3-fold serial dilutions) in duplicate (final DMSO concentration 7%). The plate was pre-incubated for 10 minutes at 25° C. and the reaction initiated by addition of 15 μL [γ-33P]ATP (final concentration 10 μM).
The reaction was stopped after […] by the addition of 30 μL 0.1M phosphoric acid containing 2 mM ATP. A multiscreen phosphocellulose filter 96-well plate (Millipore, Cat no. MAPHN0B50) was pretreated with 100 μL 0.2M phosphoric acid prior to the addition of 45 μL of the stopped assay mixture. The plate was washed with 5×200 μL 0.2M phosphoric acid. After drying, 100 μL Optiphase ‘SuperMix’ liquid scintillation cocktail (Perkin Elmer) was added to the well prior to scintillation counting (1450 Microbeta Liquid Scintillation Counter, Wallac).
After removing mean background values for all of the data points, Ki(app) data were calculated from non-linear regression analysis of the initial rate data using the Prism software package (GraphPad Prism version 3.0cx for Macintosh, GraphPad Software, San Diego Calif., USA).

[2] = system: HCT116 colorectal cancer cells; assay: Cisplatin Sensitization Assay (96 h cell viability MTS); format: cell-based; details: concentration of compound required to reduce the IC50 of Cisplatin alone by at least 3-fold; HCT116, 96 h MTS
Description: Compounds can be screened for their ability to sensitize HCT116 colorectal cancer cells to Cisplatin using a 96 h cell viability (MTS) assay. […] Compounds and Cisplatin are then both added simultaneously to the cell media in 2-fold serial dilutions from a top final concentration of 10 μM as a full matrix of concentrations in a final cell volume of 200 μl, and the cells are then incubated at 37° C. in 5% CO2. After 96 h, 40 μl of MTS reagent (Promega G358a) is added to each well and the cells are incubated for 1 h at 37° C. in 5% CO2. Finally, absorbance is measured at 490 nm using a SpectraMax Plus 384 reader (Molecular Devices) and the concentration of compound required to reduce the IC50 of Cisplatin alone by at least 3-fold (to 1 decimal place) can be reported.

T1 sequence (Q13535 whole entry): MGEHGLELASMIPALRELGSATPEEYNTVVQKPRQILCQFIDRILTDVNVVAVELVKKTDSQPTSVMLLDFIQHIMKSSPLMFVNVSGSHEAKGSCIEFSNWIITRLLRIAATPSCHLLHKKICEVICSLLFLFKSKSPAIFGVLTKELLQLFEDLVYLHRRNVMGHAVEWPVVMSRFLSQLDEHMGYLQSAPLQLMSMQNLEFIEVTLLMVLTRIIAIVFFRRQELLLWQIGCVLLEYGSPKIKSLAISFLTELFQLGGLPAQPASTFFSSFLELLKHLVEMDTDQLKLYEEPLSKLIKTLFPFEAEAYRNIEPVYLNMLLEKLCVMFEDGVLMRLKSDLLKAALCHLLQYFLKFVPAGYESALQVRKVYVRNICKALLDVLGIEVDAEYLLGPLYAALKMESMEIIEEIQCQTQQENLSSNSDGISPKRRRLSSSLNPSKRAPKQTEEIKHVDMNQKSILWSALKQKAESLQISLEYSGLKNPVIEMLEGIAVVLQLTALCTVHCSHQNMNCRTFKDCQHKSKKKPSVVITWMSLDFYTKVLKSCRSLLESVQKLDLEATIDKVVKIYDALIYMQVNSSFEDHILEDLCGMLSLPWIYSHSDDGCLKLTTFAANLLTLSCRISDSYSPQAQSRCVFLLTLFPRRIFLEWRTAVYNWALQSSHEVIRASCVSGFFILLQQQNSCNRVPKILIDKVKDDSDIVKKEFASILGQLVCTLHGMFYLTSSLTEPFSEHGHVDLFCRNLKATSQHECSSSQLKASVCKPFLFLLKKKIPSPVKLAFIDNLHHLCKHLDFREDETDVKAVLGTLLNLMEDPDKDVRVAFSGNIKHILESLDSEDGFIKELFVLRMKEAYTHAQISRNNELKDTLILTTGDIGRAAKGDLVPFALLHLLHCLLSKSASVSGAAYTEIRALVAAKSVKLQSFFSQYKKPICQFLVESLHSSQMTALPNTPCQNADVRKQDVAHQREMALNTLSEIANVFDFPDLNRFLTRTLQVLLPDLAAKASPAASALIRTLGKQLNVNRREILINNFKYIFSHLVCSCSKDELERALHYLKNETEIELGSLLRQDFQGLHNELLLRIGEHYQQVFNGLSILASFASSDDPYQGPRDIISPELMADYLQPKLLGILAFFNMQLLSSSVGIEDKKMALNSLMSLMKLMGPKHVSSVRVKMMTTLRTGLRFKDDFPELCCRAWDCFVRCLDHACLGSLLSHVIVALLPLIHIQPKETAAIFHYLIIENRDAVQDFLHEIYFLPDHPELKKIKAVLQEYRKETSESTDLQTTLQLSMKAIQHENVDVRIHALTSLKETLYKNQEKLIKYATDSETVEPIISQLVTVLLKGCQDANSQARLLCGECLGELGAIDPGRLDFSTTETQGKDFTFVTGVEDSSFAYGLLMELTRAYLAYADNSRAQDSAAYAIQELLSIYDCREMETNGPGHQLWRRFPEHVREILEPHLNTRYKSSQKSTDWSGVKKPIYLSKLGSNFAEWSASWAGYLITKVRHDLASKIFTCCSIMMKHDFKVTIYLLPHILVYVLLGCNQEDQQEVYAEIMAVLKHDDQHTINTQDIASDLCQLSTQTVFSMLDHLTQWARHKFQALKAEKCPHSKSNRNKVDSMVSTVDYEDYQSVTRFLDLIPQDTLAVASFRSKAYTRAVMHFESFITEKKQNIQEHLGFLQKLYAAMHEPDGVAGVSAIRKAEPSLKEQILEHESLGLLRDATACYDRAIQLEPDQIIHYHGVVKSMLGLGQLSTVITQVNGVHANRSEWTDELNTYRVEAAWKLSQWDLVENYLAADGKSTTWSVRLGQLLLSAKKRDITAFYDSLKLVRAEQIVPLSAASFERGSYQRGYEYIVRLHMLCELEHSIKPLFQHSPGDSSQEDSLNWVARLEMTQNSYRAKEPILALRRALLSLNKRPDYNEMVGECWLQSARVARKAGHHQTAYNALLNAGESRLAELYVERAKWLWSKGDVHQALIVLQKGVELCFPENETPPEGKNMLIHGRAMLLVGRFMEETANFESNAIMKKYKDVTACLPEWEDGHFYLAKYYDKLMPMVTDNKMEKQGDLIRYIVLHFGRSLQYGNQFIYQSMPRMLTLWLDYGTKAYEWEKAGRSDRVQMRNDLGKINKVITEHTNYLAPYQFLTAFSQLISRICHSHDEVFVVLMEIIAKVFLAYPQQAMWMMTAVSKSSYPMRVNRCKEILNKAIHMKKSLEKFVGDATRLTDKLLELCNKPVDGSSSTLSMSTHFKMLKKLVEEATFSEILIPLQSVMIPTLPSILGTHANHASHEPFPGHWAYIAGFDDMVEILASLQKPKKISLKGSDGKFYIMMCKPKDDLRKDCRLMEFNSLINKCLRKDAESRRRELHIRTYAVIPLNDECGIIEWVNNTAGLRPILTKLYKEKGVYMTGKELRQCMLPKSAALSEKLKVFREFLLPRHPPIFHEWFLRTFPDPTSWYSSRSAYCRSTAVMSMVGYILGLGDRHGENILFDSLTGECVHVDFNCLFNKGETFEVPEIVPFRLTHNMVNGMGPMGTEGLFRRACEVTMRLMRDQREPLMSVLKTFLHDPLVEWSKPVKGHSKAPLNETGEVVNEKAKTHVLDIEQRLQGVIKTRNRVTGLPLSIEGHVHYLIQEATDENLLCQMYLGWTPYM

Row | Compound | Ki [1] [nM] | Cisplatin Sensitization Assay [2]
1 | Nc1nn2cc(Cl)cnc2c1C(=O)Nc1cncnc1OC1CCN(C2COC2)CC1 [I-A-9, 2-amino-6-chloro-N-(4-((1-(oxetan-3-yl)piperidin-4-yl)oxy)pyrimidin-5-yl)pyrazolo[1,5-a]pyrimidine-3-carboxamide] | 1000 to 5000 | + (Compounds with a Cisplatin sensitization value >0.2 μM but <5 μM are marked with “+.”)
2 | CN1CCC[C@H](Oc2ncncc2NC(=O)c2c(N)nn3cc(F)cnc23)C1 [I-A-2, (S)-2-amino-6-fluoro-N-(4-((1-methylpiperidin-3-yl)oxy)pyrimidin-5-yl)pyrazolo[1,5-a]pyrimidine-3-carboxamide] | 10 to 1000 | + (Compounds with a Cisplatin sensitization value >0.2 μM but <5 μM are marked with “+.”)
3 | CN1CCN(CC2CCN(c3cnncc3NC(=O)c3c(N)nn4cc(F)cnc34)CC2)CC1 [I-B-11, 2-amino-6-fluoro-N-(5-(4-((4-methylpiperazin-1-yl)methyl)piperidin-1-yl)pyridazin-4-yl)pyrazolo[1,5-a]pyrimidine-3-carboxamide] | 10 to 1000 | ++ (Compounds with a Cisplatin sensitization value >0.02 μM but <0.2 μM are marked with “++.”)
4 | CC(C)Oc1ncncc1NC(=O)c1c(N)nn2cc(F)cnc12 [I-A-14, 2-amino-6-fluoro-N-(4-isopropoxypyrimidin-5-yl)pyrazolo[1,5-a]pyrimidine-3-carboxamide] | 10 to 1000 | ++ (Compounds with a Cisplatin sensitization value >0.02 μM but <0.2 μM are marked with “++.”)
5 | Cn1cncc1-c1cnncc1NC(=O)c1c(N)nn2cc(F)cnc12 [I-B-15, 2-amino-6-fluoro-N-(5-(1-methyl-1H-imidazol-5-yl)pyridazin-4-yl)pyrazolo[1,5-a]pyrimidine-3-carboxamide] | 10 to 1000 | ++ (Compounds with a Cisplatin sensitization value >0.02 μM but <0.2 μM are marked with “++.”)
6 | CN1CCN(c2ncncc2NC(=O)c2c(N)nn3cc(F)cnc23)CC1 [I-A-20, 2-amino-6-fluoro-N-(4-(4-methylpiperazin-1-yl)pyrimidin-5-yl)pyrazolo[1,5-a]pyrimidine-3-carboxamide] | 1000 to 5000 | + (Compounds with a Cisplatin sensitization value >0.2 μM but <5 μM are marked with “+.”)
7 | CN1CCN(Cc2ccc(-c3cnncc3NC(=O)c3c(N)nn4cc(F)cnc34)cc2)CC1 [I-B-7, 2-amino-6-fluoro-N-(5-(4-((4-methylpiperazin-1-yl)methyl)phenyl)pyridazin-4-yl)pyrazolo[1,5-a]pyrimidine-3-carboxamide] | 10 to 1000 | +++ (Compounds with a Cisplatin sensitization value of <0.02 μM are marked with “+++.”)
8 | CN1CCN(c2cnccc2NC(=O)c2c(N)nn3cc(F)cnc23)CC1 [I-C-2, 2-amino-6-fluoro-N-(3-(4-methylpiperazin-1-yl)pyridin-4-yl)pyrazolo[1,5-a]pyrimidine-3-carboxamide] | 10 to 1000 | ++ (Compounds with a Cisplatin sensitization value >0.02 μM but <0.2 μM are marked with “++.”)
9 | COc1cnccc1NC(=O)c1c(N)nn2ccc(C(F)(F)F)nc12 [I-C-4, 2-amino-N-(3-methoxypyridin-4-yl)-5-(trifluoromethyl)pyrazolo[1,5-a]pyrimidine-3-carboxamide] | 10 to 1000 | –
10 | Nc1nn2cc(F)cnc2c1C(=O)Nc1cnncc1N1CCCC1 [I-B-16, 2-amino-6-fluoro-N-(5-(pyrrolidin-1-yl)pyridazin-4-yl)pyrazolo[1,5-a]pyrimidine-3-carboxamide] | 1000 to 5000 | –
11 | CN1CCN(C2CCN(c3cnncc3NC(=O)c3c(N)nn4cc(F)cnc34)CC2)CC1 [I-B-24, 2-amino-6-fluoro-N-(5-(4-(4-methylpiperazin-1-yl)piperidin-1-yl)pyridazin-4-yl)pyrazolo[1,5-a]pyrimidine-3-carboxamide] | 10 to 1000 | –
